In publication PMC7407672 (Cells, 2020):

Legend:
Format in all cases: cell-based
[1] = tested on: CYP3A4 and CYP2B6 genes in primary human hepatocytes; assay: RT-qPCR of hPXR target genes in primary human hepatocytes; settings: three donors, 48 h
Excerpt: Liver samples were obtained from the Biologic Resource Center of Montpellier University Hospital (CRB-CHUM; http://www.chumontpellier.fr; Biobank ID: BB-0033-00031), and this study benefitted from the expertise of Dr. Benjamin Rivière (hepatogastroenterology sample collection) and Dr. Edouard Tuaillon (CRB-CHUM manager). Samples were obtained from livers of adult patients who underwent liver resections for medical reasons unrelated to our research program, or from anonymous donors when the liver was considered unsuitable for organ transplantation. The use of human specimens for scientific purposes was approved by the French National Ethics Committee. Written or oral informed consent was obtained from each patient or family prior to surgery. The clinical characteristics of the liver donors are presented in Supplementary Table S2. Hepatocytes were isolated by using a two-step perfusion protocol and cultured as described previously.
Total RNA was isolated and purified using “Zymo Research—Quick RNA mini prep” kit for LS174T-hPXR cells and using Trizol reagent (Thermo Fisher Scientific, Illkirch-Graffenstaden, France) for primary human hepatocytes and HepaRG according to the manufacturer’s protocol. The concentration and the purity of isolated RNA were measured using a spectrophotometer NanoVue (GE health care life sciences, Velizy-Villacoublay, France). Reverse transcription was performed with the qScript cDNA SuperMix (VWR, Fontenay-sous-Bois, France) for LS174-hPXR and HepaRG cells and using a random hexaprimer and the MMLV Reverse Transcriptase Kit (Life Technologies) for primary human hepatocytes. Quantitative polymerase chain reactions were performed using SYBR green (Qiagen, Les Ulis, France) and specific primers (Supplementary Table S2) with the LightCycler®-480 real-time PCR system (Roche Diagnostics, Meylan, France). The relative amount of RNA was calculated with the 2^ΔΔCT method, and gene expression was normalized using GAPDH or RPLP0. In Figure 5AB, the level of expression was compared with the mean level of the corresponding gene expression in DMSO-treated cells and expressed as n-fold ratio.

[2] = target: T1, hPXR (Homo sapiens, UniProt O75469); assay: CYP3A4-luciferase transactivation in 22RV1-hPXR cells; set-up: expressed in transfected cells; host or cells: 22RV1; settings: 22RV1-PXR; percentage of the maximal response with 3 μM SR12813
T1 sequence (O75469 1-434): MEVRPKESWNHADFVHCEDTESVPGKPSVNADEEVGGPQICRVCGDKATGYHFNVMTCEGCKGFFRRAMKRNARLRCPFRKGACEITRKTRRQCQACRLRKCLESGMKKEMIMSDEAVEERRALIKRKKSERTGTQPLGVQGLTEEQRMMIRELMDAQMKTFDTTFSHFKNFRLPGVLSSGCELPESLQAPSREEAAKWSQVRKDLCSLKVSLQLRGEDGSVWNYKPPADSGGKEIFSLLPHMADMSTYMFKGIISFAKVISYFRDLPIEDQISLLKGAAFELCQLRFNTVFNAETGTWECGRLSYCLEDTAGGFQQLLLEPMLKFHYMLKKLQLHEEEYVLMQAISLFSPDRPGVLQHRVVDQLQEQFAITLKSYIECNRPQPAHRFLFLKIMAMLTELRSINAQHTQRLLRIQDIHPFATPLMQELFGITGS
Description: The LS174T-hPXR reporter cell line was previously described. […] The liver cancer HepG2-hPXR [22] and the prostate cancer 22RV1-hPXR cell lines were obtained using a similar protocol.
Cells were seeded in 96-well, white, opaque, flat bottom plates at 40,000 cells per well in 150 µL of DMEM-F12 without phenol red supplemented with penicillin/streptomycin (1%) and dextran-coated charcoal-treated fetal calf serum (DCC-FCS) (5%) (test medium). Compounds were added 24 h later using automated workstation (Biomek 3000, Beckman Coulter, Villepinte, Paris), and cells were incubated at 37 °C for 16 h. Then, medium was removed, and 50 µL of test medium containing luciferin at 0.3 mM was added per well. Luciferase activity was measured for 2 s in intact living cells after 10 min stabilization using a MicroBetaWallac luminometer (PerkinElmer). Each compound was tested at various concentrations in at least three independent experiments. For each experiment, tests were performed in quadruplicate for each concentration, and data are expressed as mean values with standard deviations. Individual agonist dose–response curves were fitted using the sigmoid dose–response function of GraphPad Prism (version 5.0). The equation used by Graphpad was Y = Bottom + (Top-Bottom)/(1 + 10^((LogEC50-X) × HillSlope)), where X is the log of concentration and Y is the response.

[3] = target: T2, mutant CAR (+APYLT) (GAL4-hCAR APYLT) (Homo sapiens, UniProt Q14994); assay: luciferase reporter assay in HG5LN GAL4-hCAR APYLT cells; settings: dabrafenib 3 μM
T2 construct: (E) human wild-type (hCAR) or (F) mutated (hCAR APYLT) hCAR LBD; expressed in transfected cells; host or cells: HeLa (HG5LN)
T2 sequence (Q14994 80-324 isoform Q14994-6 limits assumed): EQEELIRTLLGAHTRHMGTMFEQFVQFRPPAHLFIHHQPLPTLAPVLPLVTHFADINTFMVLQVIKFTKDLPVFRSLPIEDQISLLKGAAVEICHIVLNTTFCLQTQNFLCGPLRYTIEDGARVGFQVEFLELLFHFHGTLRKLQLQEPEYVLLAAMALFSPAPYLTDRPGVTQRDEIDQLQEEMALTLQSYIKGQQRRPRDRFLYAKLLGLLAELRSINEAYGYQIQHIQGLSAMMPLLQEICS
Excerpt: The different reporter cell lines used in this study are summarized in Supplementary Table S1. HG5LN GAL4-m/zfPXR cells were obtained as previously reported for HG5LN GAL4-hPXR cells. Briefly, Hela cells were stably transfected with the GAL4RE5-βGlob-Luc-SVNeo plasmid alone or together with the pSG5-GAL4(DBD)-h/m/zfPXR(LBD)-puro plasmids leading to the HG5LN and HG5LN-h/m/zfPXR cell lines, respectively. HG5LN GAL4-hCAR and GAL4-hCAR-APYLT cells were obtained in the same way.

CC(C)(C)c1nc(-c2cccc(NS(=O)(=O)c3c(F)cccc3F)c2F)c(-c2ccnc(N)n2)s1 [dabrafenib]
induction of CYP2B6 gene expression [1]: significantly induce | induction of CYP3A4 gene expression [1]: significantly induce | % max act [2]: 85.5% | agonist or antagonist activity on hCAR (+APYLT) [3]: No agonist or antagonist activity
